Measurements from patent US9346809B2 (LEO PHARMA A/S, priority 2009, dated 2016).
Where two headings read alike, the source gives them in different places.

How the values were obtained:
Type in all cases: biochemical
[1] = target: T1, JAK1 (aa 850-1154, catalytic domain, GST-tag) (Homo sapiens, UniProt P23458); test: JAK kinase assay (HTRF, phosphorylation of TK substrate-biotin), JAK1; conditions: ATP at Km (7 μM)
T1 construct: JAK1 (aa 850-1154) and TYK2 (aa 871-1187) are expressed with an N-terminally fused GST-tag; GST (N); purchased Carna Biosciences, Inc; host or cells: baculovirus expression system
T1 sequence (P23458 850-1154): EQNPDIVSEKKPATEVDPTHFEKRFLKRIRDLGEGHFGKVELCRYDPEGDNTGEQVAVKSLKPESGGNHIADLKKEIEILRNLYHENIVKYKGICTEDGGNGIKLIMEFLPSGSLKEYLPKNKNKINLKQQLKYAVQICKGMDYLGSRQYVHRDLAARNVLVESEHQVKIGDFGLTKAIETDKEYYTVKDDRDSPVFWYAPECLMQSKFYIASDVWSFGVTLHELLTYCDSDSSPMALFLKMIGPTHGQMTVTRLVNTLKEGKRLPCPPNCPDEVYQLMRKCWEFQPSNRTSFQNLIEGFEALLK
Outline: (§1)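 Baculovirus-expressed catalytic domains phosphorylated 1 μM TK substrate-biotin in 50 mM Hepes pH 7.0 with ATP at Km (JAK1 7 μM, JAK2 4 μM, JAK3 2 μM, TYK2 13 μM) for 20-30 min at RT. EDTA/KF stop, streptavidin-XL665 plus cryptate antibody overnight; HTRF signal gave EC50.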

[2] = target: T2, JAK2 (catalytic domain, His-tag) (Homo sapiens, UniProt O60674); test: JAK kinase assay (HTRF, phosphorylation of TK substrate-biotin), JAK2; conditions: ATP at Km (4 μM)
T2 construct: All four purified enzymes contain only the catalytic domain; His (N); purchased Carna Biosciences, Inc; host or cells: baculovirus expression system
T2 sequence (O60674 849-1124 limits assumed): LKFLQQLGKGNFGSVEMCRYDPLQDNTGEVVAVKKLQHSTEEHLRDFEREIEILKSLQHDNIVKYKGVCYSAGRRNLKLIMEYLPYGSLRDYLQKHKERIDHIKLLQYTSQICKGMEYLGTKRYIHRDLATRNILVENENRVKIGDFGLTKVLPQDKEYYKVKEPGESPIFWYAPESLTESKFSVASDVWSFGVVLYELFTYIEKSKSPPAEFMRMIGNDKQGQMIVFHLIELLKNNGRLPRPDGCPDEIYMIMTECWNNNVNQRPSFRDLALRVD
Outline: as §1

[3] = target: T3, JAK3 (catalytic domain, His-tag) (Homo sapiens, UniProt P52333); test: JAK kinase assay (HTRF, phosphorylation of TK substrate-biotin), JAK3; conditions: ATP at Km (2 μM)
T3 construct: All four purified enzymes contain only the catalytic domain; His (N); purchased Carna Biosciences, Inc; host or cells: baculovirus expression system
T3 sequence (P52333 822-1111 limits assumed): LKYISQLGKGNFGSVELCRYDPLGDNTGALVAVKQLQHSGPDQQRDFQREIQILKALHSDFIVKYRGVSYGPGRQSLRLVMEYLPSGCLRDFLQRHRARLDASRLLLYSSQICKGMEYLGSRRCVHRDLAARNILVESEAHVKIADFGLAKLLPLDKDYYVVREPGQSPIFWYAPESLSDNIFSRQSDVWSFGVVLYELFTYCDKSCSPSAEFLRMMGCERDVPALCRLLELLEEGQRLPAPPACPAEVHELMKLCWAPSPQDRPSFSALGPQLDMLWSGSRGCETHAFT
Outline: as §1

[4] = target: T4, TYK2 (aa 871-1187, catalytic domain, GST-tag) (Homo sapiens, UniProt P29597); test: JAK kinase assay (HTRF, phosphorylation of TK substrate-biotin), TYK2; conditions: ATP at Km (13 μM)
T4 construct: JAK1 (aa 850-1154) and TYK2 (aa 871-1187) are expressed with an N-terminally fused GST-tag; GST (N); purchased Carna Biosciences, Inc; host or cells: baculovirus expression system
T4 sequence (P29597 871-1187): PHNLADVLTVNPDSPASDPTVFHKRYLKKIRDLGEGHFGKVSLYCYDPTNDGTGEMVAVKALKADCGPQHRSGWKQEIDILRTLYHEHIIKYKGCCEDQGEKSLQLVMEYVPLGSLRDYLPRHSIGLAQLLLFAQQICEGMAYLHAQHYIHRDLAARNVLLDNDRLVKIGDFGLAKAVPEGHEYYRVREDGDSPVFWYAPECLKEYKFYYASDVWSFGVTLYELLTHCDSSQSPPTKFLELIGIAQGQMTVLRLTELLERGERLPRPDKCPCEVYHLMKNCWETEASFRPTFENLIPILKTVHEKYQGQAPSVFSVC
Outline: as §1

[5] = read-out: JAK1 kinase inhibitory activity (EC50 indicator)
[6] = read-out: JAK2 kinase inhibitory activity (EC50 indicator)
[7] = read-out: JAK3 kinase inhibitory activity (EC50 indicator)
[8] = read-out: TYK2 kinase inhibitory activity (EC50 indicator)
[9] = HTRF assay, read-out: JAK1 kinase inhibitory activity (EC50 indicator)
[10] = HTRF assay, read-out: JAK2 kinase inhibitory activity (EC50 indicator)
[11] = HTRF assay, read-out: JAK3 kinase inhibitory activity (EC50 indicator)
[12] = HTRF assay, read-out: TYK2 kinase inhibitory activity (EC50 indicator)

Compound: O=C(C1Cc2ccccc21)N1CCN(c2ncnc3[nH]ccc23)CC12CC2 (stereo not drawn) [Example 125, Bicyclo[4.2.0]octa-1(6),2,4-trien-7-yl-[7-(7H-pyrrolo[2,3-d]pyrimidin-4-yl)-4,7-diaza-spiro[2.5]oct-4-yl]-methanone]
- EC50 [1, 5]: < 100 nM
- EC50 [2, 6]: < 100 nM
- EC50 [3, 7]: 100 to 500 nM
- EC50 [4, 8]: > 500 nM

Compound: O=C(CCc1ccccc1)N1[C@@H]2CC[C@@H]1CN(c1ncnc3[nH]ccc13)C2 [Example 168, 3-Phenyl-1-[3-(7H-pyrrolo[2,3-d]pyrimidin-4-yl)-3,8-diaza-bicyclo[3.2.1]oct-8-yl]-propan-1-one]
- EC50 [1, 5]: < 100 nM
- EC50 [2, 6]: < 100 nM
- EC50 [3, 7]: 100 to 500 nM
- EC50 [4, 8]: > 500 nM

Compound: N#CCOc1cccc(C(=O)N2[C@@H]3CC[C@@H]2CN(c2ncnc4[nH]ccc24)C3)c1 [Example 343, {3-[3-(7H-Pyrrolo[2,3-d]pyrimidin-4-yl)-3,8-diaza-bicyclo[3.2.1]octane-8-carbonyl]-phenoxy}-acetonitrile]
- EC50 [1, 9]: < 100 nM
- EC50 [2, 10]: < 100 nM
- EC50 [3, 11]: 100 to 500 nM
- EC50 [4, 12]: > 500 nM

Compound: CS(=O)(=O)Nc1ccc(C(=O)N2CCN(c3ncnc4[nH]ccc34)CC23CC3)cc1 [Example 430, N-{4-[7-(7H-Pyrrolo[2,3-d]pyrimidin-4-yl)-4,7-diaza-spiro[2.5]octane-4-carbonyl]-phenyl}-methanesulfonamide]
- EC50 [1, 9]: < 100 nM
- EC50 [2, 10]: < 100 nM
- EC50 [3, 11]: < 100 nM
- EC50 [4, 12]: < 100 nM

Compound: Nc1nc(N2CCN(C(=O)c3cnc4ccccc4n3)C3(CC3)C2)c2cc[nH]c2n1 [Example 305, [7-(2-Amino-7H-pyrrolo[2,3-d]pyrimidin-4-yl)-4,7-diaza-spiro[2.5]oct-4-yl]-quinoxalin-2-yl-methanone]
- EC50 [1, 9]: < 100 nM
- EC50 [2, 10]: < 100 nM
- EC50 [3, 11]: 100 to 500 nM
- EC50 [4, 12]: 100 to 500 nM

Compound: O=C(Oc1ccc(Cl)cc1)N1CCN(c2ncnc3[nH]ccc23)CC12CC2 [Example 446, 7-(7H-Pyrrolo[2,3-d]pyrimidin-4-yl)-4,7-diaza-spiro[2.5]octane-4-carboxylic acid 4-chloro-phenyl ester]
- EC50 ([1]; HTRF assay, read-out: JAK1 kinase inhibitory activity (EC50)): < 100 nM
- EC50 ([2]; HTRF assay, read-out: JAK2 kinase inhibitory activity (EC50)): < 100 nM
- EC50 ([3]; HTRF assay, read-out: JAK3 kinase inhibitory activity (EC50)): 100 to 500 nM
- EC50 ([4]; HTRF assay, read-out: TYK2 kinase inhibitory activity (EC50)): > 500 nM

Compound: N#CCOc1ccc(C(=O)N2[C@@H]3CC[C@@H]2CN(c2ncnc4[nH]ccc24)C3)cc1 [Example 342, {4-[3-(7H-Pyrrolo[2,3-d]pyrimidin-4-yl)-3,8-diaza-bicyclo[3.2.1]octane-8-carbonyl]-phenoxy}-acetonitrile]
- EC50 [1, 9]: < 100 nM
- EC50 [2, 10]: < 100 nM
- EC50 [3, 11]: 100 to 500 nM
- EC50 [4, 12]: > 500 nM

Compound: O=C(Cc1ccccc1)N1CCN(c2ncnc3[nH]ccc23)CC12CC2 [Example 152, 2-Phenyl-1-[7-(7H-pyrrolo[2,3-d]pyrimidin-4-yl)-4,7-diaza-spiro[2.5]oct-4-yl]-ethanone]
- EC50 [1, 5]: < 100 nM
- EC50 [2, 6]: < 100 nM
- EC50 [3, 7]: < 100 nM
- EC50 [4, 8]: 100 to 500 nM

Compound: N#CCCC(=O)N1[C@@H]2CC[C@@H]1CN(c1ncnc3[nH]ccc13)C2 [Example 182, 4-Oxo-4-[3-(7H-pyrrolo[2,3-d]pyrimidin-4-yl)-3,8-diaza-bicyclo[3.2.1]oct-8-yl]-butyronitrile]
- EC50 [1, 5]: < 100 nM
- EC50 [2, 6]: < 100 nM
- EC50 [3, 7]: 100 to 500 nM
- EC50 [4, 8]: 100 to 500 nM

Compound: O=C(c1cc2ccccc2s1)N1[C@@H]2CC[C@@H]1CN(c1ncnc3[nH]ccc13)C2 [Example 169, Benzo[b]thiophen-2-yl-[3-(7H-pyrrolo[2,3-d]pyrimidin-4-yl)-3,8-diaza-bicyclo[3.2.1]oct-8-yl]-methanone]
- EC50 [1, 5]: < 100 nM
- EC50 [2, 6]: < 100 nM
- EC50 [3, 7]: < 100 nM
- EC50 [4, 8]: > 500 nM

Compound: COC(=O)c1cc2c(N3CCN(C(=O)Cc4cccc(C#N)c4)C4(CC4)C3)ncnc2[nH]1 [Example 123, 4-{4-[2-(3-Cyano-phenyl)-acetyl]-4,7-diaza-spiro[2.5]oct-7-yl}-7H-pyrrolo[2,3-d]pyrimidine-6-carboxylic acid methyl ester]
- EC50 [1, 5]: > 500 nM
- EC50 [2, 6]: > 500 nM
- EC50 [3, 7]: > 500 nM
- EC50 [4, 8]: > 500 nM

Compound: O=C(c1ccccc1)N1[C@@H]2CC[C@@H]1CN(c1ncnc3[nH]ccc13)C2 [Example 240, Phenyl-[3-(7H-pyrrolo[2,3-d]pyrimidin-4-yl)-3,8-diaza-bicyclo[3.2.1]oct-8-yl]-methanone]
- EC50 [1, 9]: < 100 nM
- EC50 [2, 10]: < 100 nM
- EC50 [3, 11]: 100 to 500 nM
- EC50 [4, 12]: > 500 nM

Compound: COc1cc(S(N)(=O)=O)ccc1C(=O)N1[C@@H]2CC[C@H]1CN(c1ncnc3[nH]ccc13)C2 [Example 393, 3-Methoxy-4-[3-(7H-pyrrolo[2,3-d]pyrimidin-4-yl)-3,8-diaza-bicyclo[3.2.1]octane-8-carbonyl]-benzenesulfonamide]
- EC50 [1, 9]: < 100 nM
- EC50 [2, 10]: < 100 nM
- EC50 [3, 11]: < 100 nM
- EC50 [4, 12]: 100 to 500 nM

Compound: COc1cc(C(=O)N2[C@@H]3CC[C@H]2CN(c2ncnc4[nH]ccc24)C3)cs1 [Example 108, (5-Methoxy-thiophen-3-yl)-[3-(7H-pyrrolo[2,3-d]pyrimidin-4-yl)-3,8-diaza-bicyclo[3.2.1]oct-8-yl]-methanone]
- EC50 [1, 5]: < 100 nM
- EC50 [2, 6]: < 100 nM
- EC50 [3, 7]: < 100 nM
- EC50 [4, 8]: > 500 nM

Compound: N#Cc1ccc(C(=O)C(=O)N2CCN(c3ncnc4[nH]ccc34)CC23CC3)cc1 [Example 381, 4-{2-Oxo-2-[7-(7H-pyrrolo[2,3-d]pyrimidin-4-yl)-4,7-diaza-spiro[2.5]oct-4-yl]-acetyl}-benzonitrile]
- EC50 [1, 9]: < 100 nM
- EC50 [2, 10]: < 100 nM
- EC50 [3, 11]: 100 to 500 nM
- EC50 [4, 12]: 100 to 500 nM

Compound: N#Cc1ccc(CC(=O)N2CCN(c3ncnc4[nH]ccc34)CC23CC3)cc1 [Example 35, 4-{2-Oxo-2-[7-(7H-pyrrolo[2,3-d]pyrimidin-4-yl)-4,7-diazaspiro[2.5]oct-4-yl]-ethyl}benzonitrile]
- EC50 [1, 5]: < 100 nM
- EC50 [2, 6]: < 100 nM
- EC50 [3, 7]: < 100 nM
- EC50 [4, 8]: < 100 nM

Compound: O=C(NC1CCCCC1)N1[C@@H]2CC[C@H]1CN(c1ncnc3[nH]ccc13)C2 [Example 46, 3-(7H-Pyrrolo[2,3-d]pyrimidin-4-yl)-3,8-diaza-bicyclo[3.2.1]octane-8-carboxylic acid cyclohexylamide]
- EC50 [1, 5]: 100 to 500 nM
- EC50 [2, 6]: 100 to 500 nM
- EC50 [3, 7]: > 500 nM
- EC50 [4, 8]: > 500 nM

Compound: COc1ccc(C(=O)N2CCN(c3ncnc4[nH]ccc34)CC23CC3)s1 [Example 206, (5-Methoxy-thiophen-2-yl)-[7-(7H-pyrrolo[2,3-d]pyrimidin-4-yl)-4,7-diaza-spiro[2.5]oct-4-yl]-methanone]
- EC50 [1, 9]: < 100 nM
- EC50 [2, 10]: < 100 nM
- EC50 [3, 11]: < 100 nM
- EC50 [4, 12]: < 100 nM
